This note sets out measurements from patent US20090227671A1, “Prevention and treatment of atherosclerosis with lithospermate B” (Industry-Academic Cooperation Foundation, priority 2005, published 2009).

Series [1] concerns vascular smooth muscle cells. Kind of series: VSMC proliferation induced by PDGF-BB (LDH and MTT assays). In kind it is cell-based, Sprague-Dawley rats. As to conditions: LAB 1, 5, 10, 20, 30 μM pretreatment, PDGF-BB 24 hrs; LDH and MTT assays. From the text: Vascular smooth muscle cells ('VSMC' hereinafter) were separated from thoracic aorta of a Sprague-Dawley weighted about 100-150 g by using collagenase digestion method and then cultured them according to the method disclosed in previous studies [[…], et al. Role of p44/p42 MAP kinase in the age-dependent increase in vascular smooth muscle cell proliferation and neointimal formation. Arterioscler Thromb Vasc Biol. Feb. 1 2003; 23(2):204-210.; Hamaguchi A, Kim S, Izumi Y, et al. Contribution of extracellular signal-regulated kinase to angiotensin II-induced transforming growth factor-beta1 expression in vascular smooth muscle cells. Hypertension. July 1999; 34(1):126-131]. […] The VSMC was treated in a culture medium not containing serum for 24 hrs prior to treatment with PDGF-BB, and the reaction according to the presence or absence of PDGF-BB was analyzed after pretreating with LAB or other reagents. […] The cells were then washed twice with PBS, lysed by using 0.5% Triton-X100, and then the activity of lactate dehydronase (LDH) was measured by using CytoTox-ONETM assay kit (Promega, Madison, Wis., USA) with fluorescence at […]. […]
(Tetrazolium dyes change colour on reduction, which living cells bring about.)

For a further series, the system named is Akt. Kind of series: Western blot of Akt phosphorylation in VSMC induced by PDGF-BB. Format: cell-based, Sprague-Dawley rats. As to the method:
VSMC was washed with PBS and then dissolved in lysis buffer (25 mM Tris HCl, pH 7.4, 25 mM NaCl, 25 mM NaF, 25 mM sodium pyrophosphate, 1 mM sodium vanadate, 2.5 mM EDTA, 2.5 mM EGTA, 0.05% (wt/vol) Triton X-100, 0.5% (wt/vol) SDS, 0.5% (wt/vol) deoxycholate, 0.5% (wt/vol) Nonidet P-40, […], and 1 mM PMSF). The cells were collected and centrifuged at 13,000 rpm for 15 min and the protein concentration of the resulting supernatant was measured by Bradford assay. The proteins were denatured and were subjected to SDS-PAGE and then blotted onto nitrocellulose membranes. The membranes were placed in 5% (w/v) non-fat dry milk in TBS with 0.1% Tween20 (TBS-T) and then placed at room temperature for 3 hrs. The blots were placed at 4° C. along with anti-ERK1/2 or anti-Akt antibodies (Cell signaling Technologh, Berely. Mass., USA) for 16 hrs. The membranes were washed 4 times with TBS-T, added with anti-rabbit IgG antibody conjugated with horseradish peroxidase (1:2,000 diluent) and then placed at room temperature for 1 hr. The immunoreactive bands detected by ECL reagents were developed by Hyperfilm-ECL (Amersham Life Science, Little Chalfont, UK). The bands showing positive responses were quantitated by densitometry and then compared with that of control.
In FIG. 1B, it is shown that both U0126 (20 μM) and LY294002 (40 μM) inhibited activities of LDH and MTT induced by PDGF-BB. As a way to investigate the signal transduction pathway involved in VSMC proliferation induced by PDGF-BB, an experiment was conducted to examine whether PDGF-BB activates a relatively lower signal transduction pathway such as ERK1/2 and Akt.
Background: A western blot detects proteins with antibodies after separation by electrophoresis.

In series [2] the test system is vascular smooth muscle cells. Nature of the series: Cytotoxicity of LAB in VSMC. In kind it is cell-based, Sprague-Dawley rats. Conditions: LAB up to 30 μM. As to the method:
The VSMC was treated in a culture medium not containing serum for 24 hrs prior to treatment with PDGF-BB, and the reaction according to the presence or absence of PDGF-BB was analyzed after pretreating with LAB or other reagents.
To investigate whether LAB decreases the proliferation of VSMC induced by PDGF-BB an experiment was performed as follows. The VSMC was placed in a culture medium not containing serum for 24 hrs to inhibit cell proliferation, and then pretreated with LAB with various concentrations of 1, 5, 10, 20, 30 μM and treated with PDGF-BB for 24 hrs. The extent of VSMC proliferation was compared with that of control as stated above via LDH and MTT assays (FIG. 1).

The nature of series [3]: Acute toxicity due to oral administration in SD rats. Format: in vivo. As to conditions: SD, rat, in vivo, 1 g/kg; oral, single administration. As to the method: (§1) Acute toxicity test was performed using 6 week old SPF SD rats. The SD rats were divided two per each group and each rat was orally administered once with LAB in the amount of 1 g/kg/1 mL, which was suspended in 0.5% methylcellulose. After the above administration, the rats were subjected to examination with regard to survival, clinical symptoms, change in body weight, and the like and also hematological examination, biochemical blood test. Further, autopsies were performed to observe abnormalities in abdominal organs.

A further series deals with SD rats. The series is described as above. In kind it is in vivo. As to the method:
as §1

Consider `O=C(/C=C/c1ccc(O)c2c1[C@H](C(=O)O[C@H](Cc1ccc(O)c(O)c1)C(=O)[O-])[C@@H](c1ccc(O)c(O)c1)O2)O[C@H](Cc1ccc(O)c(O)c1)C(=O)[O-].[Mg+2]` [LAB, lithospermate B], for which, in series [1], the “VSMC proliferation induced by PDGF-BB” value is on record as “decreased in proportion to the concentration”. Besides, the “decrease of Akt phosphorylation” value with Akt (30 μM LAB, 20 mM NAC, 40 μM LY294002, 1 h, then PDGF-BB 10 min, FIG. 4C) was determined as 8 folds. Further, the “phosphorylation of Akt due to PDGF-BB” value with Akt (LAB 1, 5, 10, 20, 30 μM for 1 h, PDGF-BB 10 min, FIG. 4B) was “inhibits”. Besides, in the series on Akt (PDGF-BB 10 ng/mL), the “most effective concentration, inhibition of Akt phosphorylation” value was 30 µM. Besides, the “adverse reaction in VSMC” value in series [2] (highest concentration) is given as “no adverse reaction observed”. The cytotoxic activities result in series [2] (data not shown) was “no cytotoxic activities observed”. The median lethal dose (LD50) (usually the dose expected to kill half of the subjects tested) in series [3] is more than 500 mg/kg. In addition, the “dose without toxicity to rats” value with SD rats (oral, single administration) is “up to 500 mg/kg”. In addition, in the series on SD rats (single oral dose 1 g/kg in 0.5% methylcellulose), the survival result is listed as “all experimental rats survived”. Further, in the series on SD rats (single oral dose 1 g/kg, body weight, hematology, blood biochemistry, autopsy), the “clinical symptoms, toxicities and other abnormalities” value is “no abnormal clinical symptoms, no toxicities and other abnormalities”.
